Here are results for three compounds from paper PMC6255837, “Ternary crystal structure of human RORγ ligand-binding-domain, an inhibitor and corepressor peptide provides a new insight into corepressor interaction” (Scientific Reports, 2018).

The target of assay [1] is T1, RORγ-LBD (Homo sapiens, UniProt P51449).
T1 construct: the glutathione-S-transferase (GST)-tagged RORγ-LBD produced in Sf9 cells; GST; made in house; host or cells: Sf9 cells
T1 sequence (P51449 269-508 limits assumed): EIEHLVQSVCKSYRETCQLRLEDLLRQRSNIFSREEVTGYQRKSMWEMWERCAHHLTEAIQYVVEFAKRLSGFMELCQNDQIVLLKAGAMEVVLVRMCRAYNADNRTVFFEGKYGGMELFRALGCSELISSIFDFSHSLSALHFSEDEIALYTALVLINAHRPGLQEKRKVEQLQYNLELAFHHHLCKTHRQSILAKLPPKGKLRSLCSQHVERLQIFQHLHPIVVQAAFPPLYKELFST
Briefly: FRET-based CoR peptide recruitment assay (dual TR-FRET). The format is biochemical. The note with it: for relative efficacy (RE) in CoR recruitment: compared with compound A. The protocol:
Figure 1 The relative efficacy (RE) of CoR peptide recruitment to the RORγ-LBD and LUC activity by inverse agonists. […] Background activity in the absence of a standard inverse agonist is defined as 0% response; and maximum activity induced by a standard inverse agonist at 100μM as 100% response. […] A value of 100% is given to cells without inverse agonist in LUC assay. […] Detailed methods on plasmid construction, sample preparation, crystallization, structure determination, and FRET and LUC assays are provided in previous publications. […] The purified proteins were crystallized in complex with rockogenin and CoR peptide (ternary complex structures). […] The complex structures were determined by molecular replacement method using the RORγ-LBD apo structures as a search model. Diffraction data of the RORγ-LBD were collected at 21IDF (APS), Chicago, USA. Figures were generated using PyMOL[30].
(§1) For TR-FRET assays, the glutathione-S-transferase (GST)-tagged RORγ-LBD produced in Sf9 cells and peptide solution were incubated with compounds, and the 520/490 TR-FRET ratio was measured. Human RORγ LUC assays were carried out in accordance with the method of Madoux et al.[31] with some modifications and described previously. EC50 was calculated by curve-fitting in GraphPad Prism. Detailed descriptions of synthesis for the compounds are described elsewhere[9],[22].
(In general: In TR-FRET formats the signal depends on donor and acceptor labels being close together.)

Assay [2] concerns the target T1, RORγ-LBD. Briefly: FRET-based CoA peptide releasing assay (dual TR-FRET). The note with it: GST-tagged RORγ-LBD, read-out: EC50 release of CoA peptide (FRET). The format is biochemical. The protocol:
Figure 1 The relative efficacy (RE) of CoR peptide recruitment to the RORγ-LBD and LUC activity by inverse agonists. […] Background activity in the absence of a standard inverse agonist is defined as 0% response; and maximum activity induced by a standard inverse agonist at 100μM as 100% response. […] A value of 100% is given to cells without inverse agonist in LUC assay.
Detailed methods on plasmid construction, sample preparation, crystallization, structure determination, and FRET and LUC assays are provided in previous publications. […] The purified proteins were crystallized in complex with rockogenin and CoR peptide (ternary complex structures). […] The complex structures were determined by molecular replacement method using the RORγ-LBD apo structures as a search model. Diffraction data of the RORγ-LBD were collected at 21IDF (APS), Chicago, USA. Figures were generated using PyMOL[30].
as §1

Assay [3] deals with T2, Human RORγ (Homo sapiens, UniProt P51449).
T2 sequence (P51449 1-518): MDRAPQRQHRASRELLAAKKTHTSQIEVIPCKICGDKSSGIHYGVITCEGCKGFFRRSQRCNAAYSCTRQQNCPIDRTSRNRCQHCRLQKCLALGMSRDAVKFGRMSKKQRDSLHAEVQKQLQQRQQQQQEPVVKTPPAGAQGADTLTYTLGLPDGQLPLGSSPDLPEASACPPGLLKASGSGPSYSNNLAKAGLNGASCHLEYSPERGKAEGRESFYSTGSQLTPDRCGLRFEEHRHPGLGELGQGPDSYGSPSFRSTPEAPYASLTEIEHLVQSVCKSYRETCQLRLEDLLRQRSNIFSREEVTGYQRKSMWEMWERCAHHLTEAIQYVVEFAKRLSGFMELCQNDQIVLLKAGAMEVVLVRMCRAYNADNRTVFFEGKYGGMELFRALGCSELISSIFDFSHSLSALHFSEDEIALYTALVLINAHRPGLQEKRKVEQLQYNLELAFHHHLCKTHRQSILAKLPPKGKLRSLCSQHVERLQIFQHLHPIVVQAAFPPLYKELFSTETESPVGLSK
In words: Human RORγ luciferase (LUC) reporter assay. The format is cell-based. The note with it: for LUC activity relative to compound A: fold difference of EC50 versus compound A. The method, then:
Figure 1 The relative efficacy (RE) of CoR peptide recruitment to the RORγ-LBD and LUC activity by inverse agonists. […] Background activity in the absence of a standard inverse agonist is defined as 0% response; and maximum activity induced by a standard inverse agonist at 100μM as 100% response. […] A value of 100% is given to cells without inverse agonist in LUC assay. […] Human RORγ LUC assays were carried out in accordance with the method of Madoux et al.[31] with some modifications and described previously. EC50 was calculated by curve-fitting in GraphPad Prism. Detailed descriptions of synthesis for the compounds are described elsewhere[9],[22].
(In general: A reporter such as luciferase makes a cellular process visible.)

Assay [4] deals with Th17 cells. Also noted: method as in earlier work. The note with it: cited from earlier work.
The test system of assay [5] is IL-17 release. Also on record: method as in PMID 26819660. The note with it: orally administered, inflammatory model mice; cited from earlier work.

pEC50: −log10 of the molar value.

What is called pEC50 is −log10 of the EC50, conventionally taken in molar units.

Regarding `COc1ccc(-c2c(-c3nc(CC(=O)NCC4CCOCC4)cs3)cnn2C(C)(C)C)cc1` [compound T], the pEC50 in assay [1] (TR-FRET, GST-tagged RORγ-LBD, compound T n = 1) was 6.60; in assay [2], 6.30; in assay [3] (luciferase reporter assay, means ± SE (n = 2–3)), 6.36. Moreover, the “relative efficacy (RE) in CoR recruitment” value in assay [1] is given as “about half that of compound A”; in assay [1] (listed as Compound T) it was “half the efficacy of compound A”. Moreover, the “LUC activity relative to compound A” value is “nine times lower activity” in assay [3] and “nine-times lower than compound A” in assay [3] (listed as Compound T). Further, the “production of IL-17” value in assay [4] was “inhibits the production of IL-17”.
Consider `C[C@@H]1CC[C@@]2(OC1)O[C@H]1C[C@H]3[C@@H]4CC[C@H]5C[C@@H](O)CC[C@]5(C)[C@H]4C[C@@H](O)[C@]3(C)[C@H]1[C@@H]2C` [rockogenin], for which, in assay [1] (result in words), the “CoR peptide-recruiting activity in dual FRET assay” value is “not detected”.
Regarding `CC(=O)N1CC(C(=O)Nc2ccc(C)cc2C)C(c2nnc(C3CC(CC(C)C)C3)n2C2CC2)C1` (stereo not shown) [compound A], in assay [5], the IL-17 release entry was “effectively suppressed IL-17 release in a dose-dependent manner”.
